This is an account of results in US20140157443A1, “METHODS AND COMPOSITIONS FOR DETECTING AND MODULATING A NOVEL MTOR COMPLEX” (ST. JUDE CHILDREN'S RESEARCH HOSPITAL, priority 2011, published 2014).

One test has as its system Karpas-299 cells. Briefly: mTOR inhibition: proliferation of Karpas-299 cells over three population doublings. The class given is cell-based, human. As to conditions: 0.1 to 10,000 ng/ml. The method, then: FIG. 5A provides a graph presenting cell density as a percent control of Karpas-299 cells. […] Cell densities were plotted as the percentage of cells treated with vehicle. […] Cell densities were plotted as the percentage of cells treated with vehicle.
(§1) Cells were plated in drug containing growth medium and followed for three population doublings.

Test [1] has as its system TEL2-expressing primary Arf−/− mouse pre-B cells. Briefly: mTOR inhibition: proliferation of TEL2-expressing pre-B cells. The class given is cell-based. The method, then:
(§2) FIG. 5A provides a graph presenting cell density as a percent control of Karpas-299 cells. Logarithmically growing Karpas-299 cells were treated for three population doublings with increasing amounts (0.1, 0.3, 1, 3, 10, 30, 100, 300, 1000, 3000, 10,000 ng/ml) of Rapamycin, AZD-8055 or OSI-27. Cell densities were plotted as the percentage of cells treated with vehicle. FIG. 5B provides a graph presenting cell density as a percent control of mouse pre-B cells transduced with MSCV-IRES-GFP (vector) or MSCV-TEL2-IRES-GFP (TEL2) and treated with AZD-8055 or Rapamycin. Cell densities were plotted as the percentage of cells treated with vehicle. […] FIG. 5D provides immunoblots of the same Rapamycin-treated fractions of FIG. 5C probed for the presence of p-mTOR^Ser2448, p-AKT^Ser473, p-AKT^Thr308, p-P70S6K^Thr389, p-S6^Ser235/236, p-4E-BP1^Thr37/46 and for the autophagosome marker LC3B I/II.
as §1

In test [2] the test system is mTOR signaling in Karpas-299 cells. Briefly: Immunoblots of mTOR target phosphorylation, Ki-67 and LC3B in treated Karpas-299 cells. The class given is cell-based, human. The method, then: as §2
(§3) For western blot analysis, cells were lysed in 1× lysis buffer (Cell Signaling Technologies). For co-IP experiments, cells were lysed in CHAPS lysis buffer and xenografts in 1× cell signaling lysis buffer. Co-IP was performed with 2 μg antibody whilst rotating at 4° C.
For orientation: Immunoblotting shows a protein as a band on a membrane.

Test [3] deals with mTOR signaling in TEL2-expressing Arf−/− mouse pre-B cells. Nature of the test: Immunoblots of mTOR target phosphorylation, KI-67 and LC3B in AZD-8055-treated TEL2-expressing pre-B cells. The class given is cell-based. The method, then:
(§4) FIG. 5A provides a graph presenting cell density as a percent control of Karpas-299 cells. Logarithmically growing Karpas-299 cells were treated for three population doublings with increasing amounts (0.1, 0.3, 1, 3, 10, 30, 100, 300, 1000, 3000, 10,000 ng/ml) of Rapamycin, AZD-8055 or OSI-27. Cell densities were plotted as the percentage of cells treated with vehicle. FIG. 5B provides a graph presenting cell density as a percent control of mouse pre-B cells transduced with MSCV-IRES-GFP (vector) or MSCV-TEL2-IRES-GFP (TEL2) and treated with AZD-8055 or Rapamycin. Cell densities were plotted as the percentage of cells treated with vehicle. FIG. 5C provides m-TOR IP/immunoblots of lysates of the Rapamycin-treated Karpas-299 cells probed for the presence of Rictor, mSIN1, mLST8 and TEL2. FIG. 5D provides immunoblots of the same Rapamycin-treated fractions of FIG. 5C probed for the presence of p-mTOR^Ser2448, p-AKT^Ser473, p-AKT^Thr308, p-P70S6K^Thr389, p-S6^Ser235/236, p-4E-BP1^Thr37/46 and for the autophagosome marker LC3B I/II.
At 100 ng/ml AZD-8055, the autophagy salvage pathway was activated as detected by the change in the relative amounts of the LC3BI/II proteins.
as §3

A further test has as its target T1, mTORC3 (Homo sapiens, UniProt P42345).
T1 construct: endogenous TEL2-expressing Karpas-299 cell lysates immunoprecipitated with mTOR (mTOR IP) or TEL2 (TEL2-IP) antibodies; endogenous in cells; host or cells: Karpas-299
Nature of the test: IP-kinase assay, TEL2 IP (mTORC3 alone) with recombinant 4E-BP1. The conditions noted are these: Karpas-299 TEL2 IP, recombinant 4E-BP1, γ32P-ATP; FKBP12/Rapamycin 37 μg/ml/20 μM; OSI-27 10 μM. The class given is biochemical. The method, then: (§5) IgG indicates the immunoprecipitation with non-relevant IgG.
(§6) To determine the relative amounts of mTORC 1, 2 and 3, whole cell lysates of Karpas-299 cells were immunoprecipitated with non-relevant IgG, anti-mTOR, anti-TEL2, anti-Raptor, or anti-Rictor antibodies and the IPs were used for western blotting and in vitro kinase assays. […] For in vitro kinase assays, the IPs were incubated with recombinant 4E-BP1 or AKT in the presence of ATP.
(§7) Captured antibody-protein complexes were incubated with recombinant 4E-BP1 (Abcam) or AKT/PKB (Millipore) in the presence of (γ^32P-) ATP.

A further test deals with T2, mTOR (Homo sapiens, UniProt P42345).
T2 construct: endogenous TEL2-expressing Karpas-299 cell lysates immunoprecipitated with mTOR (mTOR IP) or TEL2 (TEL2-IP) antibodies; endogenous in cells; host or cells: Karpas-299
Nature of the test: IP-kinase assay, mTOR IP (mTORC1+mTORC2+mTORC3) with recombinant 4E-BP1. The class given is biochemical. As to conditions: Karpas-299 mTOR IP, recombinant 4E-BP1, γ32P-ATP; FKBP12/Rapamycin 37 μg/ml/20 μM; OSI-27 10 μM. The method, then: as §5, §6, §7

The test system of test [4] is vector-transduced Arf−/− pre-B cells. Briefly: mTOR inhibition: proliferation of vector-transduced pre-B cells. The class given is cell-based, mouse. The method, then:
as §4
To determine if mTORC3 is also insensitive to Rapamycin inhibition in vivo, Karpas-299 cells were treated with increasing amounts of drug for three population doublings. […] This was deduced from the steady relative intensities of LC3BI/II proteins at all Rapamycin concentrations (FIG. 5D). […]

For test [5], the target named is T3, Raptor (human cell lines) (human, UniProt Q8N122 1-1335).
T3 construct: mTORC1 component
T3 sequence (Q8N122 whole entry): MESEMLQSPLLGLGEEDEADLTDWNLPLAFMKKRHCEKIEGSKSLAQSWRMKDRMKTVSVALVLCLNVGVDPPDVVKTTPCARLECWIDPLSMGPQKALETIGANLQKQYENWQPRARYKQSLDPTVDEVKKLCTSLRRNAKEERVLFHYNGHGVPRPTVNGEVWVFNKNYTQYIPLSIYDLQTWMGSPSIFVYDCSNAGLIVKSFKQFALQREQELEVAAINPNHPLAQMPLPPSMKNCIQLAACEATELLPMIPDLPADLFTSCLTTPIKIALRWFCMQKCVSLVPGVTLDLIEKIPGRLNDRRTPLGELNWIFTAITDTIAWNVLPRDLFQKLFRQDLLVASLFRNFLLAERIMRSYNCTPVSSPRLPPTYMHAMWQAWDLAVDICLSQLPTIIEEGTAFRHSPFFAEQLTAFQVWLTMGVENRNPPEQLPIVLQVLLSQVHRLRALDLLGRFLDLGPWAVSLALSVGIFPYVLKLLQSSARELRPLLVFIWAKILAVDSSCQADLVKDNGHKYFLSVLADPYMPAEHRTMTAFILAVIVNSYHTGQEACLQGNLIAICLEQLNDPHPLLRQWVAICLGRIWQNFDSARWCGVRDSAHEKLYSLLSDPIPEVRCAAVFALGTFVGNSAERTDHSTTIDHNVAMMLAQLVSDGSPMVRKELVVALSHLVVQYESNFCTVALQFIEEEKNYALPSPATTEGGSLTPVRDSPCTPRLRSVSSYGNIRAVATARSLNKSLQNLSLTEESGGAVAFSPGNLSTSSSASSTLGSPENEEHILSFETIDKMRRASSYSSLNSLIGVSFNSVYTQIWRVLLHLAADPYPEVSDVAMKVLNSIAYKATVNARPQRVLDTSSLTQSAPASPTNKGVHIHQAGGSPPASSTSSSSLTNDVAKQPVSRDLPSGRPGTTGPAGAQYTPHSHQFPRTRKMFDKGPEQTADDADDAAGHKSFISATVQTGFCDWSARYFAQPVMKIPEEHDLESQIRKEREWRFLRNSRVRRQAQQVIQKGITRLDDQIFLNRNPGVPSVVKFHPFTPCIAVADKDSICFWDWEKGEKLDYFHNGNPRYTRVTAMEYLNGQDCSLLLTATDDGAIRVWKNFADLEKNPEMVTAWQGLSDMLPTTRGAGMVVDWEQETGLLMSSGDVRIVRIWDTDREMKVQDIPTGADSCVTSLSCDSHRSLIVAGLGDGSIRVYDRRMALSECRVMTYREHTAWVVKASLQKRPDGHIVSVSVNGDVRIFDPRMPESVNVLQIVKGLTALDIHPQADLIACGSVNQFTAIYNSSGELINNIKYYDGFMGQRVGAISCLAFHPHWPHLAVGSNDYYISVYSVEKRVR
Nature of the test: TEL2 IP / western blot, whole cell lysates of Karpas-299, K562 and OS-17 cells (FIG. 2B). The method, then: as §3

The next test concerns the target T4, SIN1 (human cell lines) (human, UniProt Q9BPZ7 2-522, limits assumed).
T4 construct: mTORC2 component; also called mSIN1
Described as above. The method, then:
as §3

Test [6] has as its target T5, RUVBL2 (bacterially-expressed, purified recombinant) (UniProt Q9Y230 1-463, limits assumed).
T5 construct: Used as a specificity control, a protein not part of mTORC3
Nature of the test: purified proteins co-incubated for 8 or 24 hours, TEL2 IP, western blot for RUVBL2 (FIG. 2C).

The target of test [7] is Rictor of mouse Arf-/- pre-B cells (mouse, UniProt Q6QI06 1-1708). Briefly: TEL2 IP / western blot, whole cell lysates of mouse Arf-/- pre-B cells expressing TEL2 (FIG. 2A). The method, then:
as §3

In test [8] the target is T6, SIN1 of mouse Arf-/- pre-B cells (mouse, UniProt Q8BKH7 2-522, limits assumed).
T6 construct: also called mSIN1
The description is as above. The method, then: as §3

Test [9] addresses T7, Rictor (human cell lines) (human, UniProt Q6R327 1-1708).
T7 construct: mTORC2 component
Nature of the test: TEL2 IP / western blot of cytoplasmic, membrane and nuclear fractions of Karpas-299 cells (FIG. 3A). The method, then: Nuclear, cytoplasmic and membrane fractions of Karpas-299 cells were subjected to IP-Western blotting to determine the cellular location of mTORC3.
as §3

Entries after “also recorded” stand apart in the source; their conditions may differ.

T7 sequence (Q6R327 whole entry): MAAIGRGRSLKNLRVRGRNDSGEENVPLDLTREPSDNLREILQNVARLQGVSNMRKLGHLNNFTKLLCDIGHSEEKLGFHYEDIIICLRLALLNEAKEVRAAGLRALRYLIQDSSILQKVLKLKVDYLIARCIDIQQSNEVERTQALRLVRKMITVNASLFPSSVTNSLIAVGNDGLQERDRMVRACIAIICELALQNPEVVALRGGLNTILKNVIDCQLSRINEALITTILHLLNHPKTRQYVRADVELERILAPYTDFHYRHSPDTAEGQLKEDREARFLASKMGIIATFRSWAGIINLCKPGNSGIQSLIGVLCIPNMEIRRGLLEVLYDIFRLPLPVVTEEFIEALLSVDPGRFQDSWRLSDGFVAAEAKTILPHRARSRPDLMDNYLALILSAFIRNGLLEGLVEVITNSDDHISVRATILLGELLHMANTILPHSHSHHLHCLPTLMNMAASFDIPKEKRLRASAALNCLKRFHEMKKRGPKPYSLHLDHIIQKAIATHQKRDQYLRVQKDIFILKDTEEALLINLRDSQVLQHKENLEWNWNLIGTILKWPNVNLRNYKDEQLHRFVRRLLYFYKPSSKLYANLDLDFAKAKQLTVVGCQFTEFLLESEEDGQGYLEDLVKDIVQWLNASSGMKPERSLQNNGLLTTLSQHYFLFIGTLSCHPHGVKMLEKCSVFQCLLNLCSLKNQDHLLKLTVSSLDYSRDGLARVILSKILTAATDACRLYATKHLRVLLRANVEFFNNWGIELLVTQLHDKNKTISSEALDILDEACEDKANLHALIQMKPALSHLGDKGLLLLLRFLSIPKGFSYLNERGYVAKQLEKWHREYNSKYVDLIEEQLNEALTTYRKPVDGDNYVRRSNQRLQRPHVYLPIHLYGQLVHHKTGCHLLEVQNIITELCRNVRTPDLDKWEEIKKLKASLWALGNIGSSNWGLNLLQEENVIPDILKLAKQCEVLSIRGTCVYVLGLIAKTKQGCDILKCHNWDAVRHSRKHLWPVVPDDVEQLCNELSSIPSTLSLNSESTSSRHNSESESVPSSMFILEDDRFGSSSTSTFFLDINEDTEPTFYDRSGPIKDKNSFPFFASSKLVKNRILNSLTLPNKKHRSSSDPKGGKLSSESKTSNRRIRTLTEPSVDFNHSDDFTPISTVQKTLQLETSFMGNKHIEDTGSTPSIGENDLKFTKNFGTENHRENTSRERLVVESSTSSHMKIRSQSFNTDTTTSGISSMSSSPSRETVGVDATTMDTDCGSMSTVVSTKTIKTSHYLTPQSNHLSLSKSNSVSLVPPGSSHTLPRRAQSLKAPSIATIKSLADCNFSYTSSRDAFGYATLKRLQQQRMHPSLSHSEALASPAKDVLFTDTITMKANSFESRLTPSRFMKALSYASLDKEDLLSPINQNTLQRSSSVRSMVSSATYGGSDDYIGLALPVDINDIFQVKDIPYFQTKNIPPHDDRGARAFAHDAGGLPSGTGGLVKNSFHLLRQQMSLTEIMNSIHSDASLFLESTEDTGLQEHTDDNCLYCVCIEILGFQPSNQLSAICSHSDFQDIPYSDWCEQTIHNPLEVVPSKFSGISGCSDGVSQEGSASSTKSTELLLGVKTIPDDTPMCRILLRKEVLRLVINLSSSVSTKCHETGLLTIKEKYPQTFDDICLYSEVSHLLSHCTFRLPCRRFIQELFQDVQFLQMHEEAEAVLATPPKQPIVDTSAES
Rictor of mouse Arf-/- pre-B cells, sequence (Q6QI06 whole entry): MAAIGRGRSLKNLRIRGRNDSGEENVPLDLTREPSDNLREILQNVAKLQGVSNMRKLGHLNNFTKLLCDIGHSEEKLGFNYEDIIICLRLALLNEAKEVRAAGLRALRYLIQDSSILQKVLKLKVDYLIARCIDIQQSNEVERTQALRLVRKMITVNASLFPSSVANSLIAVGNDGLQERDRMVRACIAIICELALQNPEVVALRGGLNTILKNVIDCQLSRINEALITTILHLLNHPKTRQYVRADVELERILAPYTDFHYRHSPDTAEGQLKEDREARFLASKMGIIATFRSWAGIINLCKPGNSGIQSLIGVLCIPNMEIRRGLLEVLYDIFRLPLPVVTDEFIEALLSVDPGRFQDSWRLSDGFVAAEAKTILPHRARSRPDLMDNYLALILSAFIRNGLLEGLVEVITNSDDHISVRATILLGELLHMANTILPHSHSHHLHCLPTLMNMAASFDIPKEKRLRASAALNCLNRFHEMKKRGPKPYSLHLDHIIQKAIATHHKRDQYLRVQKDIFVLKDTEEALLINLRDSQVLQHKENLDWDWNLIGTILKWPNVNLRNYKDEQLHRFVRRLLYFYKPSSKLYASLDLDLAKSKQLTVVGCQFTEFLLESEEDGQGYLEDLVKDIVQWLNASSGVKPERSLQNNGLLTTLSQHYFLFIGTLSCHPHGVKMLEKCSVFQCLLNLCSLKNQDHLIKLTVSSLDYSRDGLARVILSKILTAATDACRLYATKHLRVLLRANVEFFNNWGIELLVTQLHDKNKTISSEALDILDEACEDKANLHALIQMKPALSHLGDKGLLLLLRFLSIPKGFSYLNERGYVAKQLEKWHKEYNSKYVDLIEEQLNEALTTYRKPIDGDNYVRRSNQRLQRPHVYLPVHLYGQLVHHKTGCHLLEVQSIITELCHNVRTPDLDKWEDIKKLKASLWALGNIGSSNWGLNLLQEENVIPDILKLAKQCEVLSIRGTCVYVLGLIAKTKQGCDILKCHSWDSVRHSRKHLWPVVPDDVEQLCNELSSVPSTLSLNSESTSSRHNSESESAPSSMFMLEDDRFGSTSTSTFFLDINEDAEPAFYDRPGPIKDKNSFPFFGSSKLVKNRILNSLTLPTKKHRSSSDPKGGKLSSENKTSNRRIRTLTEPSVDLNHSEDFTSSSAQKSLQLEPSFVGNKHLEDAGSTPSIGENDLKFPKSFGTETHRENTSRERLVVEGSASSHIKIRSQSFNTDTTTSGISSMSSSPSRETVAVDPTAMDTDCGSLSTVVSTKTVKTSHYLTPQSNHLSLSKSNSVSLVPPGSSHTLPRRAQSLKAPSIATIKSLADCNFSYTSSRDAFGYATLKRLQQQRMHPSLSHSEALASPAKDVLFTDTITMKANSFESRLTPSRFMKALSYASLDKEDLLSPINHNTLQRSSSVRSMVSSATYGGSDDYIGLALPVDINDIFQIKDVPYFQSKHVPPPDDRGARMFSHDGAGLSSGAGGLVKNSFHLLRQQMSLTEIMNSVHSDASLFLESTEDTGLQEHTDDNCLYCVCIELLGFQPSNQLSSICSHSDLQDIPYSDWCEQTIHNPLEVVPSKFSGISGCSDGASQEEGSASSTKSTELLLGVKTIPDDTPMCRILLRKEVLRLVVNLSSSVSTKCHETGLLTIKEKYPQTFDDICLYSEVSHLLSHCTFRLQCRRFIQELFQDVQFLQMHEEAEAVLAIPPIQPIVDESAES

For `COc1ccc(-c2ccc3c(N4CCOC[C@@H]4C)nc(N4CCOC[C@@H]4C)nc3n2)cc1CO` [AZD-8055], the “Proliferation of Karpas-299 cells” value with Karpas-299 cells is reported as “completely inhibited proliferation”. Moreover, in [1], the “Drug concentration that completely inhibited proliferation” value is over 100 ng/mL. Further, in [2] (Karpas-299), the “Concentration giving complete loss of 4E-BP1 Thr37/46, P70S6K Thr389 and AKT Ser473 phosphorylation, coinciding with loss of cell proliferation” value is 100 ng/mL; the “Phosphorylation of AKT Thr308” value was “remained stable”. Moreover, in test [2] (Karpas-299, 100 ng/ml), the “Autophagy salvage pathway (relative amounts of LC3BI/II)” value is “activated” and the “Ki-67 antigen (transition to G0 phase)” value is “loss of the Ki-67 antigen”. In addition, the “mTORC3 signaling / kinase activity in cultured cells” value in [2] is “sensitive; also recorded: fully inhibited”. The Autophagy salvage pathway result in test [3] (TEL2-expressing pre-B cells) is recorded as “did not induce the autophagy salvage pathway”. In addition, the Cell survival result in test [3] (TEL2-expressing pre-B cells after complete loss of mTOR signaling) is given as “died rapidly”. In addition, the “p-Akt Ser473, p-S6 Ser235/236, p-4E-BP1 Thr37/46 phosphorylation and KI-67 antigen” value in [3] (TEL2-expressing pre-B cells, >100 ng/ml) is “loss of p-Akt^Ser473, p-S6^Ser235/236, p-4E-BP1^Thr37/46 phosphorylation and loss of the KI-67 antigen”.
In the case of `COc1cccc2cc(-c3nc([C@H]4CC[C@H](C(=O)O)CC4)n4ncnc(N)c34)[nH]c12` [OSI-27], the “4E-BP1 phosphorylation (kinase activity) by TEL2 IP” value at mTORC3 was “reduced 4E-BP1 phosphorylation to levels comparable with IPs using control IgG”. Moreover, at mTOR, the “4E-BP1 phosphorylation (kinase activity) by mTOR IP” value is listed as “reduced 4E-BP1 phosphorylation to levels comparable with IPs using control IgG”. In addition, the “Proliferation of Karpas-299 cells” value with Karpas-299 cells was “completely inhibited proliferation”. In addition, in [2], the “mTORC3 signaling / kinase activity in cultured cells” value is on record as “sensitive; also recorded: fully inhibited”.
Consider `CO[C@H]1C[C@@H]2CC[C@@H](C)[C@@](O)(O2)C(=O)C(=O)N2CCCC[C@H]2C(=O)O[C@H]([C@H](C)C[C@@H]2CC[C@@H](O)[C@H](OC)C2)CC(=O)[C@H](C)/C=C(\C)[C@@H](O)[C@@H](OC)C(=O)[C@H](C)C[C@H](C)/C=C/C=C/C=C/1C` [Rapamycin], for which the “Drug concentration at which cells stopped proliferating” value in test [4] is over 0.3 ng/mL. Besides, in [2] (Karpas-299), the “Concentration causing marked reduction of p-AKT Ser473 phosphorylation” value was over 0.3 ng/mL.

B1: TEL2 (translocation Ets leukemia 2 / Ets variant gene 7) (other)
chain: MQEGELAISPISPVAAMPPLGTHVQARCEAQINLLGEGGICKLPGRLRIQPALWSREDVLHWLRWAEQEYSLPCTAEHGFEMNGRALCILTKDDFRHRAPSSGDVLYELLQYIKTQRRALVCGPFFGGIFRLKTPTQHSPVPPEEVTGPSQMDTRRGHLLQPPDPGLTSNFGHLDDPGLARWTPGKEESLNLCHCAELGCRTQGVCSFPAMPQAPIDGRIADCRLLWDYVYQLLLDTRYEPYIKWEDKDAKIFRVVDPNGLARLWGNHKNRVNMTYEKMSRALRHYYKLNIIKKEPGQKLLFRFLKTPGKMVQDKHSHLEPLESQEQDRIEFKDKRPEISP
notes: Endogenous in the human cell lines and xenografts; Exogenous (MSCV-TEL2-IRES-GFP) in mouse Arf-/- pre-B cells; Purified from transfected HEK 293T cells for the in vitro association; also called TEL2/ETV7; ETV7
With B1, the binding result (in [5]; with SIN1 (human cell lines); in test [6]; in test [7]; in test [8]; in test [9]) was “no binding” throughout.
